Laboratory results: patent US12703679B2, “Sulfone compounds and pharmaceutical compositions thereof, and their therapeutic applications” (Cura Therapeutics, LLC, priority 2019, dated 2026)

Tests used:
[1] = system: Aß40; test: Attenuating the amyloid β40 level in neurons differentiated from familial Alzheimer's disease patient iPSCs (ELISA); type: cell-based, human; conditions: 10 μM test compound, FIG. 3
Description: Induced pluripotent stem cells from a familial Alzheimer's disease patient carrying a duplication of the amyloid precursor protein gene were differentiated to neurons using standard protocols. Israel et al., Nature 2012, 482, 216-220. Neural precursor cells were plated on 24-well plates and differentiated to neurons over three weeks. There was an exponential increase in the levels of Aß secreted in these cells starting on Day 4 in culture. […]

[2] = system: Aß40 in CSF; test: Reduction of Aß40 in CSF of Sprague Dawley rats after single dose intravenous and oral administration; type: in vivo
Description: This non-GLP study had two groups that received compound A1 by intravenous (IV) and oral (PO) administration with 3-6 male rats in each group. Rats received an IV dose of compound A1 at 1 mg/kg. Rats received a PO dose of compound A1 at 10 mg/kg. Plasma samples were collected pre-dose, 0.167 (10 min), 0.5, 1, 2, 4, 6, 8, 12, and 24 h post-dose. CSF samples were collected pre-dose, 0.5, 1, 2, 4, 8, 12, and 24 hours post-dose.

Compound | decrease of Aß40 relative to untreated cells (PBS) ([1]; daily treatment, by Day 6 of treatment, iPSC-derived neurons) | reduction of Aß40 relative to untreated cells (PBS) ([1]; within 24 h, iPSC-derived neurons (APP gene duplication)) | reduction of Aß40 in CSF ([2]; single IV dose 1 mg/kg, rats, by 4 h post administration, FIG. 5) | time Aß40 levels in CSF remained lower than starting levels ([2]; single PO dose 10 mg/kg, male rats, FIG. 4) | decrease of Aß40 in CSF ([2]; single PO dose 10 mg/kg, male rats, by 2 h post administration, FIG. 4)
COc1cc(CS(=O)(=O)c2cccc(C(=O)O)c2)cc(OC)c1 [Compound A2, 3-((3,5-dimethoxybenzyl)sulfonyl)benzoic acid] | greater than 30% | 20% | – | – | –
Cc1ccc(C(F)(F)F)cc1CS(=O)(=O)c1cccc(C(=O)O)c1 [Compound A1, 3-((2-methyl-5-(trifluoromethyl)benzyl)sulfonyl)benzoic acid] | – | – | 20-60% | up to 24 h | up to 50%
